Experimental data as given in ChEMBL document CHEMBL4837216, “Polymyxin B-inspired non-hemolytic tyrocidine A analogues with significantly enhanced activity against gram-negative bacteria: How cationicity impacts cell specificity and antibacterial mechanism” (Eur J Med Chem, 2021).
≈ marks a conversion by molar mass, not a printed value. Calls of active or inactive are those of the source. The calls are words filed in the database; no cut-off is given here.

Experiments:
[1] = test system: Cell membrane; test: Induction of cytoplasmic membrane permeabilization in Staphylococcus aureus at 0.06 to 8 times MIC measured for 60 mins by propidium iodide dye based fluorescence assay; format: subcellular
[2] = test system: Cell membrane; test: Induction of cell membrane disruption in Escherichia coli assessed as increase in fluorescence intensity at 4 times MIC measured after 60 mins by PI staining based flow cytometric analysis (reference value: 0.1%); format: subcellular
[3] = test system: Escherichia coli; test: Antibacterial activity against Escherichia coli ATCC 8739 infected in C57BL/6 mouse peritonitis sepsis model assessed as clear boundaries between white and red pulps in spleen at 10 mg/kg, ip administered for 12 hrs by Hematoxylin-Eosin staining based microscopic analysis; format: functional, organism-based
[4] = test system: Cell membrane; test: Induction of outer membrane permeabilization to NPN in Escherichia coli ATCC 8739 cells assessed as increase in fluorescence intensity by NPN-probe based fluorescence spectrophotometric analysis; format: subcellular
[5] = test system: Cell membrane; test: Induction of cell membrane disruption in Staphylococcus aureus assessed as cell morphological damage at 20 uM incubated for 1 hr by scanning electron microscopy; format: subcellular
[6] = test system: Escherichia coli; test: Antibacterial activity against Escherichia coli ATCC 8739 infected in C57BL/6 mouse peritonitis sepsis model assessed as reduction in inflammatory cell infiltration in lung at 10 mg/kg, ip administered for 12 hrs by Hematoxylin-Eosin staining based microscopic analysis; format: functional, organism-based
[7] = test system: Acinetobacter baumannii; test: Antibacterial activity against Acinetobacter baumannii ATCC 19606 assessed as inhibition of bacterial growth measured after 24 hrs by turbidity based analysis; format: functional; conditions: ATCC 19606 = CIP 70.34 = JCM 6841
[8] = test system: Lipopolysaccharide (LPS); test: Displacement of dansyl-polymyxinB from LPS (unknown origin) assessed as decrease in fluorescence intensity by fluorescence spectrophotometric analysis
[9] = test system: Staphylococcus aureus; test: Bactericidal activity against Staphylococcus aureus assessed as decrease in cell survival at 1XMIC measured after 24 hrs by colony counting assay; format: functional, organism-based
[10] = test system: Cell membrane; test: Induction of cytoplasmic membrane permeabilization in Staphylococcus aureus assessed as increase in red fluorescence intensity at 2 times MIC measured after 60 mins by fluorescence microscopy
[11] = test system: Escherichia coli; test: Antibacterial activity against Escherichia coli ATCC 8739 infected in C57BL/6 mouse peritonitis sepsis model assessed as clear boundaries between hepatic cell cords in liver at 10 mg/kg, ip administered for 12 hrs by Hematoxylin-Eosin staining based microscopic analysis; format: functional, organism-based
[12] = test system: Escherichia coli; test: Antibacterial activity against Escherichia coli ATCC 8739 assessed as inhibition of bacterial growth measured after 17 passages by turbidity based analysis; format: functional, organism-based
[13] = test system: Cell membrane; test: Induction of cytoplasmic membrane permeabilization in Escherichia coli at 0.06 to 8 times MIC measured for 10 mins by propidium iodide dye based fluorescence assay
[14] = test system: Escherichia coli; test: Antibacterial activity against Escherichia coli ATCC 8739 infected in C57BL/6 mouse peritonitis sepsis model assessed as reduction in inflammatory cell infiltration in kidney at 10 mg/kg, ip administered for 12 hrs by Hematoxylin-Eosin staining based microscopic analysis; format: functional, organism-based
[15] = test system: Cell membrane; test: Induction of cytoplasmic membrane permeabilization in Escherichia coli at 0.06 to 8 times MIC measured for 60 mins by propidium iodide dye based fluorescence assay
[16] = test system: Escherichia coli; test: Antibacterial activity against Escherichia coli ATCC 8739 infected in C57BL/6 mouse peritonitis sepsis model assessed as bacterial load in lung at 10 mg/kg, ip administered for 12 hrs (reference value: 5.47 +/-0.73 logCFU/gm); format: functional
[17] = test system: Pseudomonas aeruginosa; test: Antibacterial activity against Pseudomonas aeruginosa ATCC 27853 assessed as inhibition of bacterial growth measured after 24 hrs by turbidity based analysis; format: functional
[18] = test system: Cell membrane; test: Induction of cell membrane disruption in Escherichia coli assessed as increase in fluorescence intensity at 1 times MIC measured after 60 mins by PI staining based flow cytometric analysis (reference value: 0.1%); format: subcellular
[19] = test system: Escherichia coli; test: Antibacterial activity against Escherichia coli ATCC 8739 infected in C57BL/6 mouse peritonitis sepsis model assessed as glomerulus and renal tubules with normal shape in kidney at 10 mg/kg, ip administered for 12 hrs by Hematoxylin-Eosin staining based microscopic analysis; format: functional, organism-based
[20] = test system: Cell membrane; test: Induction of cytoplasmic membrane depolarization in Staphylococcus aureus assessed as increase in fluorescence intensity a 1XMIC by DiSC3-5 dye based fluorescence method
[21] = test system: Staphylococcus aureus; test: Antibacterial activity against Staphylococcus aureus ATCC 6538 assessed as inhibition of bacterial growth measured after 24 hrs by turbidity based analysis; format: functional
[22] = test system: Enterococcus faecalis; test: Antibacterial activity against Enterococcus faecalis ATCC 29212 assessed as inhibition of bacterial growth measured after 24 hrs by turbidity based analysis; format: functional
[23] = Stability of the compound in human serum at 100 uM measured after 24 hrs by RP-HPLC analysis; format: ADME, cell-free
[24] = test system: Escherichia coli; test: Antibacterial activity against Escherichia coli ATCC 8739 infected in C57BL/6 mouse peritonitis sepsis model assessed as reduction in bleeding with normal shaped alveoli at 10 mg/kg, ip administered for 12 hrs by Hematoxylin-Eosin staining based microscopic analysis; format: functional, organism-based
[25] = test system: Staphylococcus aureus; test: Antibacterial activity against methicillin resistant Staphylococcus aureus assessed as inhibition of bacterial growth measured after 24 hrs by turbidity based analysis; format: functional
[26] = test system: Lipid bilayer; test: Binding affinity to bacterial inner membrane mimic DOPE/DOPG (3:1) large unilamellar vesicles assessed as calcein leakage measured after 30 mins fluorescence based assay
[27] = test system: Cell membrane; test: Induction of cytoplasmic membrane permeabilization in Staphylococcus aureus at 0.06 to 8 times MIC measured for 10 mins by propidium iodide dye based fluorescence assay
[28] = test system: Escherichia coli; test: Antibacterial activity against Escherichia coli ATCC 8739 infected in C57BL/6 mouse peritonitis sepsis model assessed as reduction in inflammatory cell infiltration in liver at 10 mg/kg, ip administered for 12 hrs by Hematoxylin-Eosin staining based microscopic analysis; format: functional, organism-based
[29] = test system: Escherichia coli; test: Antibacterial activity against Escherichia coli ATCC 8739 infected in C57BL/6 mouse peritonitis sepsis model assessed as bacterial load in spleen at 10 mg/kg, ip administered for 12 hrs (reference value: 6.01 +/-0.59 logCFU/gm); format: functional
[30] = test system: Escherichia coli; test: Bactericidal activity against Escherichia coli assessed as decrease in cell survival at 1XMIC measured after 24 hrs by colony counting assay; format: functional, organism-based
[31] = test system: Escherichia coli; test: Antibacterial activity against Escherichia coli ATCC 8739 infected in C57BL/6 mouse peritonitis sepsis model assessed as bacterial load in liver at 10 mg/kg, ip administered for 12 hrs (reference value: 5.7 +/-0.35 logCFU/gm); format: functional
[32] = test system: Cell membrane; test: Induction of cytoplasmic membrane permeabilization in Escherichia coli assessed as increase in red fluorescence intensity at 2 times MIC measured after 60 mins by fluorescence microscopy; format: subcellular
[33] = test system: Staphylococcus aureus; test: Antibacterial activity against Staphylococcus aureus ATCC 6538 assessed as inhibition of bacterial growth measured after 17 passages by turbidity based analysis; format: functional, organism-based
[34] = test system: L02; test: Cytotoxicity against human L02 cells assessed as reduction in cell viability at >10 uM incubated for 24 hrs by CCK8 assay; format: cell-based; conditions: l02, 24 h
[35] = test system: Lipid bilayer; test: Binding affinity to eukaryotic cell membrane mimic DOPC/Cholesterol (3:1) large unilamellar vesicles assessed as calcein leakage measured after 30 mins fluorescence based assay
[36] = test system: Escherichia coli; test: Antibacterial activity against Escherichia coli ATCC 8739 infected in C57BL/6 mouse peritonitis sepsis model assessed as reduction in inflammatory cell infiltration in spleen at 10 mg/kg, ip administered for 12 hrs by Hematoxylin-Eosin staining based microscopic analysis; format: functional, organism-based
[37] = test system: Escherichia coli; test: Antibacterial activity against Escherichia coli ATCC 8739 assessed as inhibition of bacterial growth measured after 24 hrs by turbidity based analysis; format: functional
[38] = test system: Escherichia coli; test: Antibacterial activity against Escherichia coli ATCC 8739 infected in C57BL/6 mouse peritonitis sepsis model assessed as bacterial load in kidney at 10 mg/kg, ip administered for 12 hrs (reference value: 5.15 +/-0.4 logCFU/gm); format: functional
[39] = test system: Cell membrane; test: Induction of cytoplasmic membrane depolarization in Escherichia coli assessed as increase in fluorescence intensity a 1XMIC by DiSC3-5 dye based fluorescence method
[40] = Hemolytic activity in human RBC assessed as induction of cell lysis measured after 30 mins by microtiter plate method; format: cell-based, Erythrocyte; conditions: human red blood cells (erythrocytes)
[41] = test system: Cell membrane; test: Induction of cell membrane disruption in Escherichia coli assessed as increase in fluorescence intensity at 2 times MIC measured after 60 mins by PI staining based flow cytometric analysis (reference value: 0.1%); format: subcellular
[42] = test system: Cell membrane; test: Induction of cell membrane disruption in Escherichia coli assessed as wrinkled cells at 20 uM incubated for 1 hr by scanning electron microscopy

## CC(C)C[C@@H]1NC(=O)[C@H](CCCN)NC(=O)[C@H](CCCN)NC(=O)[C@H](CCCN)NC(=O)[C@H](CCCN)NC(=O)[C@H](CCCN)NC(=O)[C@@H](Cc2ccccc2)NC(=O)[C@H](Cc2ccccc2)NC(=O)[C@@H]2CCCN2C(=O)[C@@H](Cc2ccccc2)NC1=O
[1]
  Activity: Active
[2]
  Activity: 91.8%
[3]
  Activity: Active
[4]
  Activity: Active
[5]
  Activity: Active
[6]
  Activity: Active
[7]
  MIC: 10 µM (≈ 12.2 µg/mL)
[8]
  Activity: Active
[9]
  Activity: Active
[10]
  Activity: Active
[11]
  Activity: Active
[12]
  Activity: Active
[13]
  Activity: inactive
[14]
  Activity: Active
[15]
  Activity: Active
[16]
  Activity: 3.15 log10CFU/g
[17]
  MIC: 10 µM (≈ 12.2 µg/mL)
[18]
  Activity: 42.7%
[19]
  Activity: Active
[20]
  Activity: Active
[21]
  MIC: 5 µM (≈ 6.11 µg/mL)
[22]
  MIC: 5 µM (≈ 6.11 µg/mL)
[23]
  Stabilty: Stable
[24]
  Activity: Active
[25]
  MIC: 10 µM (≈ 12.2 µg/mL)
[26]
  Activity: Active
[27]
  Activity: inactive
[28]
  Activity: Active
[29]
  Activity: 4.25 log10CFU/g
[30]
  Activity: Active
[31]
  Activity: 2.49 log10CFU/g
[32]
  Activity: Active
[33]
  Activity: Active
[34]
  Activity: Toxic
[35]
  Activity: inactive
[36]
  Activity: Active
[37]
  MIC: 5 µM (≈ 6.11 µg/mL)
[38]
  Activity: 3.48 log10CFU/g
[39]
  Activity: Active
[40]
  HC50 at 0.5 h: > 400 µM
[41]
  Activity: 78.3%
[42]
  Activity: Active
